# Data taken from ChEMBL document CHEMBL1201862, “PubChem BioAssay data set” (2004).
# Calls of active or inactive are those of the source.
# Experiments:
# [1] = target: T1, Sentrin-specific protease 6 (Homo sapiens, UniProt Q9GZR1); type: functional;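 also: Luminescence-based dose-response confirmatory assay of SENP6 inhibition, following up an ultra-high-throughput screen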
# T1 sequence (Q9GZR1 whole entry): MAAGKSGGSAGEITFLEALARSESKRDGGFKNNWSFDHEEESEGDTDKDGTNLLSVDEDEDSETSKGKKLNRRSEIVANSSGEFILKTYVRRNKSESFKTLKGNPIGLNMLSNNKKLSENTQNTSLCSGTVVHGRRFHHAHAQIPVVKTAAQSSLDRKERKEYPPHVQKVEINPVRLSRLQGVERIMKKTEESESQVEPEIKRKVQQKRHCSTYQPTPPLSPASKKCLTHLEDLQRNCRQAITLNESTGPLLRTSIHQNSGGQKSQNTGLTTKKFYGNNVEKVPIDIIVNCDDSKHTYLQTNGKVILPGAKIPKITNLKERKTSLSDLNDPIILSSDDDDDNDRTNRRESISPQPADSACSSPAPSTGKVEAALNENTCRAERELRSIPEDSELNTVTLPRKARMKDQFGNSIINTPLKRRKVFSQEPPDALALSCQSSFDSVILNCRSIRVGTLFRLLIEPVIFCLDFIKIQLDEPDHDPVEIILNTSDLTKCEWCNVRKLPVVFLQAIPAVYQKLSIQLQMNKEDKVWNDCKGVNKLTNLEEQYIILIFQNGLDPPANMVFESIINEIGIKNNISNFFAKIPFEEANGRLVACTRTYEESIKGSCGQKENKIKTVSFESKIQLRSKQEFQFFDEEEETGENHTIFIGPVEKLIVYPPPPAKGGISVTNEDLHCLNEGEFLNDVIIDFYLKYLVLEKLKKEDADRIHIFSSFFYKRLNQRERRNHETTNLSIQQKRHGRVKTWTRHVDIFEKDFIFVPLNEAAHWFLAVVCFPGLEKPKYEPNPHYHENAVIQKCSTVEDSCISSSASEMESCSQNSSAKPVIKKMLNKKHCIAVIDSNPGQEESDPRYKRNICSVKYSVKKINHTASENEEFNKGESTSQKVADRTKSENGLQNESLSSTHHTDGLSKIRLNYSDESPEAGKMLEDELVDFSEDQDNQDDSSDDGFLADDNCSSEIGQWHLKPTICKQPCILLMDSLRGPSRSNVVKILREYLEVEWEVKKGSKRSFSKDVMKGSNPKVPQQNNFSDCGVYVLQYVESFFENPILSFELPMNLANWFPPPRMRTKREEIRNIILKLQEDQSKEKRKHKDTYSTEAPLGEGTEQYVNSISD
# [2] = target: T2, Mannose-6-phosphate isomerase (Homo sapiens, UniProt P34949); experiment: inhibitors of human PMI, primary screen, biochemical, fluorescence intensity, coupled assay (AID 1209)
# T2 sequence (P34949 whole entry): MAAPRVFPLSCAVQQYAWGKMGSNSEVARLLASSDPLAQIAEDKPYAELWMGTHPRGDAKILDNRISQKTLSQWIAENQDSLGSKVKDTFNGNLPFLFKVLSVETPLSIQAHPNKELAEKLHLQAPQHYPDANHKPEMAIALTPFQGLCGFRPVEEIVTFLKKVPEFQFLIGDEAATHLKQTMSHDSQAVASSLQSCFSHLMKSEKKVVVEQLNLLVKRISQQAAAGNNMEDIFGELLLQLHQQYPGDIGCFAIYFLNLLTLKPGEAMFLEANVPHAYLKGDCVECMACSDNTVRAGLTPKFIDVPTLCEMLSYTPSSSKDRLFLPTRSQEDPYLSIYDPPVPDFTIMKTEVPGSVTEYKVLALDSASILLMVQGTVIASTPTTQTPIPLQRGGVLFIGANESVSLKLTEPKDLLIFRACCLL
# Aspartyl aminopeptidase = target: T3, Aspartyl aminopeptidase (Plasmodium falciparum 3D7, UniProt Q8I2J3)
# T3 sequence (Q8I2J3 whole entry): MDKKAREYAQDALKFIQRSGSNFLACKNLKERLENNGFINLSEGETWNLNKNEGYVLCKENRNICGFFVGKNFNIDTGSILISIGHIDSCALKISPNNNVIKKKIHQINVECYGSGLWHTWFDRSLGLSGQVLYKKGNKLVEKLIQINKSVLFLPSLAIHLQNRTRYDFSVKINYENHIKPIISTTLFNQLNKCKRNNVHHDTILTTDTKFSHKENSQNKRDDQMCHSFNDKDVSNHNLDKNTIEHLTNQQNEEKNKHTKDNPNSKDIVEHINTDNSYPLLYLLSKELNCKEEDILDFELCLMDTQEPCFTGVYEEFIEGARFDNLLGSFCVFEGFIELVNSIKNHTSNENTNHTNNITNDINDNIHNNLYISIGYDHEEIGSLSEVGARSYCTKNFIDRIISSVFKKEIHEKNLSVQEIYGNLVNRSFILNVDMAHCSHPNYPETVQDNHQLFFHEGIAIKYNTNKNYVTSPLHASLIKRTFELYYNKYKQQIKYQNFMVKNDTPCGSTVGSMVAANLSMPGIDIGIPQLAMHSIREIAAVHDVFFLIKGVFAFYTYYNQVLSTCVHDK
# [3] = target: Homeodomain-interacting protein kinase 4 (Homo sapiens, UniProt Q8NE63); type: functional
# [4] = target: Testis-specific serine/threonine-protein kinase 1 (Homo sapiens, UniProt Q9BXA7); type: functional
# [5] = target: Homeodomain-interacting protein kinase 2 (Homo sapiens, UniProt Q9H2X6); type: functional;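 also: measured within a kinome-wide kinase profiling panel, HIPK2 being one panel member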
# [6] = target: STE20-like serine/threonine-protein kinase (Homo sapiens, UniProt Q9H2G2); type: functional
# LIM domain kinase 1 = LIM domain kinase 1 (Homo sapiens, UniProt P53667); experiment: Navigating the Kinome. Panel member name: LIMK1; type: functional
# [7] = target: Tyrosine-protein kinase ABL1 (Homo sapiens, UniProt P00519); type: functional
# [8] = target: Tyrosine-protein kinase Blk (Homo sapiens, UniProt P51451); type: functional;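 also: obtained as one member of a kinome-wide kinase assay panel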
# [9] = target: Serine/threonine-protein kinase 17A (Homo sapiens, UniProt Q9UEE5); type: functional
# [10] = target: MAP kinase-interacting serine/threonine-protein kinase 2 (Homo sapiens, UniProt Q9HBH9); type: functional
# [11] = target: Eukaryotic elongation factor 2 kinase (Homo sapiens, UniProt O00418); type: functional
# [12] = target: Testis-specific serine/threonine-protein kinase 2 (Homo sapiens, UniProt Q96PF2); type: functional;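 also: part of the Navigating the Kinome panel, target entry STK22B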
# [13] = Luminescence-based dose response cell-based high throughput screening assay for cytotoxic compounds using the IEC-6 intestinal epithelial cell line. [Related pubchem assays: 1858 (Summary AID.), 1825 (Counterscreen.), 1907 (Confirmation screen.)]; type: functional
# [14] = target: DNA (cytosine-5)-methyltransferase 1 (Homo sapiens, UniProt P26358); experiment: DNMT1 methyltransferase inhibitors, confirmation, biochemical, fluorescent molecular beacon (AID 602386); type: functional
# Tyrosine-protein kinase ABL1, sequence (P00519 whole entry): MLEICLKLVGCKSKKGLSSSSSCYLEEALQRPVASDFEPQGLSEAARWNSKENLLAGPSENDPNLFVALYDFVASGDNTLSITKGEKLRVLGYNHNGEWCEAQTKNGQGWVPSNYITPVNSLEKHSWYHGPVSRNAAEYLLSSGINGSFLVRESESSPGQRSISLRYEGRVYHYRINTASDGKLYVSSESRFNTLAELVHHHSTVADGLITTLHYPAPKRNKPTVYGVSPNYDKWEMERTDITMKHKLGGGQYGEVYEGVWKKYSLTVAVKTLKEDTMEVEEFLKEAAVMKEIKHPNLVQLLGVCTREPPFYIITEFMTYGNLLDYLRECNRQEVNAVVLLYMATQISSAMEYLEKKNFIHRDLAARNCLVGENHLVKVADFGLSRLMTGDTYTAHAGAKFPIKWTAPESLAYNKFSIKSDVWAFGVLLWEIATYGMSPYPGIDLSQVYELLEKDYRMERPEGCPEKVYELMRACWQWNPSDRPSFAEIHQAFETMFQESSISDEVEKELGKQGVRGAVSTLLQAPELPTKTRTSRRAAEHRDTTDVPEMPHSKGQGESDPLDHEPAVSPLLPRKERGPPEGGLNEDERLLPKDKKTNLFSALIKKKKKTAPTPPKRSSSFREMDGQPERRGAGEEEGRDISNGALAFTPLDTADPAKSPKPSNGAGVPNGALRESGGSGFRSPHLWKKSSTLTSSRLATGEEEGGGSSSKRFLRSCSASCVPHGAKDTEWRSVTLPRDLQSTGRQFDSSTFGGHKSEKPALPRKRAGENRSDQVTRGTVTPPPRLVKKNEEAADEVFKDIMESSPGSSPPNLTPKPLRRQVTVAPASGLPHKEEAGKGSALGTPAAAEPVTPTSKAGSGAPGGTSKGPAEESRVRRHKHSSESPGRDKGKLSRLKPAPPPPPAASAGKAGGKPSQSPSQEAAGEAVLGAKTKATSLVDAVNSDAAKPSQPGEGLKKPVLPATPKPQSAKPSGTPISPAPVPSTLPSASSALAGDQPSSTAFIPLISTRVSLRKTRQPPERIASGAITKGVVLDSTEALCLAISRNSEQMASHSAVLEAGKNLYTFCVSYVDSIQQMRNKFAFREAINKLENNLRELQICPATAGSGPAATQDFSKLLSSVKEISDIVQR
# Homeodomain-interacting protein kinase 2, sequence (Q9H2X6 whole entry): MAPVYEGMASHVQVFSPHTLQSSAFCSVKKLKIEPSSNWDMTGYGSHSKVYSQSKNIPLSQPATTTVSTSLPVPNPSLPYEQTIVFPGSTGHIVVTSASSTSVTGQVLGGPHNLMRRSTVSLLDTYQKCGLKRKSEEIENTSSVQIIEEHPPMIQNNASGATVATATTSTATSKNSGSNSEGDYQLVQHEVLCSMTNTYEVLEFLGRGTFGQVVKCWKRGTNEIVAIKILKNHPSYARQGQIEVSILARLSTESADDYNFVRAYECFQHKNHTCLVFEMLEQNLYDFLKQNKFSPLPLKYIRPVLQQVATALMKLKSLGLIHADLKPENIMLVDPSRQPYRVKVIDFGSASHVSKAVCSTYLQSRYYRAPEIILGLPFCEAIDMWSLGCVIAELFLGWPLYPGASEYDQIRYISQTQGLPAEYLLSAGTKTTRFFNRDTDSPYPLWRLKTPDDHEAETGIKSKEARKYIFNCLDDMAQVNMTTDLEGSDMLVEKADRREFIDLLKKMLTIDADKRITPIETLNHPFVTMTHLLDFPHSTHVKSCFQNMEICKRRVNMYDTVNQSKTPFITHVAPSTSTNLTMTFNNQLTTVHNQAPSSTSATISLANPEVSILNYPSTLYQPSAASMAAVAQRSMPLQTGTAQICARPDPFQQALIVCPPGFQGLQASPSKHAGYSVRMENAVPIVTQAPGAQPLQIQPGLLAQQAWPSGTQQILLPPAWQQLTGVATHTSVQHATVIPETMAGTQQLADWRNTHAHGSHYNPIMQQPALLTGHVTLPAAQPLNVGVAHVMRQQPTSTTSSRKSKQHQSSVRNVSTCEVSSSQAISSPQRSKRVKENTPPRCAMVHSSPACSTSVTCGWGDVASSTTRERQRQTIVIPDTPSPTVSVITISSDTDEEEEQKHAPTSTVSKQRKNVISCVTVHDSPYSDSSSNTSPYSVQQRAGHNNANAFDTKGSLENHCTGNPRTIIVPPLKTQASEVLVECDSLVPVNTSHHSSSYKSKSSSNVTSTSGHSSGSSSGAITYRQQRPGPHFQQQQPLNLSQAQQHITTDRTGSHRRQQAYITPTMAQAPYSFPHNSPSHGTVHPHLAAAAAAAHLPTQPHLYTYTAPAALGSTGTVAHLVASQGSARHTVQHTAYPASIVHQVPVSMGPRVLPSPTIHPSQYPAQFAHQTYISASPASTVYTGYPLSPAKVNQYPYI
# Serine/threonine-protein kinase 17A, sequence (Q9UEE5 whole entry): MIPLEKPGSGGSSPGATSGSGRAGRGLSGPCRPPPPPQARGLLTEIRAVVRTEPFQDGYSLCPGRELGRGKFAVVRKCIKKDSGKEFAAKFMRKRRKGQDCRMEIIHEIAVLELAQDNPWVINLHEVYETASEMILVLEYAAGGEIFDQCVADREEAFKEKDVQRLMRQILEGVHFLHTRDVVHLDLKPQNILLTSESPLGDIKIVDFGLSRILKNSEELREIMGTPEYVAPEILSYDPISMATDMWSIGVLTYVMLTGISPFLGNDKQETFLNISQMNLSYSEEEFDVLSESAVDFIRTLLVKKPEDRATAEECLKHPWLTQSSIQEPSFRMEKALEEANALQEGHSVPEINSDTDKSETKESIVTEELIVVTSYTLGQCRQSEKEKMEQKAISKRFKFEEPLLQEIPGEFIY
# Testis-specific serine/threonine-protein kinase 1, sequence (Q9BXA7 whole entry): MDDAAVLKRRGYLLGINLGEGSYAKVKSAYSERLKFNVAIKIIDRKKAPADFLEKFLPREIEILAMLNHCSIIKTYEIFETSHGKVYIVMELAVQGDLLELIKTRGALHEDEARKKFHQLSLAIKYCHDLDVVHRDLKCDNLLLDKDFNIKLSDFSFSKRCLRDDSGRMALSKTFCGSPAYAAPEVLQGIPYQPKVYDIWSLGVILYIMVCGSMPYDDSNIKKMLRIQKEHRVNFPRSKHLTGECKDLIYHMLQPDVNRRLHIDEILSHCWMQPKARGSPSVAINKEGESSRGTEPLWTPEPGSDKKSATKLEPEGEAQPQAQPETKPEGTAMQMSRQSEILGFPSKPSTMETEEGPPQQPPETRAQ
# STE20-like serine/threonine-protein kinase, sequence (Q9H2G2 whole entry, the tested form may be a part): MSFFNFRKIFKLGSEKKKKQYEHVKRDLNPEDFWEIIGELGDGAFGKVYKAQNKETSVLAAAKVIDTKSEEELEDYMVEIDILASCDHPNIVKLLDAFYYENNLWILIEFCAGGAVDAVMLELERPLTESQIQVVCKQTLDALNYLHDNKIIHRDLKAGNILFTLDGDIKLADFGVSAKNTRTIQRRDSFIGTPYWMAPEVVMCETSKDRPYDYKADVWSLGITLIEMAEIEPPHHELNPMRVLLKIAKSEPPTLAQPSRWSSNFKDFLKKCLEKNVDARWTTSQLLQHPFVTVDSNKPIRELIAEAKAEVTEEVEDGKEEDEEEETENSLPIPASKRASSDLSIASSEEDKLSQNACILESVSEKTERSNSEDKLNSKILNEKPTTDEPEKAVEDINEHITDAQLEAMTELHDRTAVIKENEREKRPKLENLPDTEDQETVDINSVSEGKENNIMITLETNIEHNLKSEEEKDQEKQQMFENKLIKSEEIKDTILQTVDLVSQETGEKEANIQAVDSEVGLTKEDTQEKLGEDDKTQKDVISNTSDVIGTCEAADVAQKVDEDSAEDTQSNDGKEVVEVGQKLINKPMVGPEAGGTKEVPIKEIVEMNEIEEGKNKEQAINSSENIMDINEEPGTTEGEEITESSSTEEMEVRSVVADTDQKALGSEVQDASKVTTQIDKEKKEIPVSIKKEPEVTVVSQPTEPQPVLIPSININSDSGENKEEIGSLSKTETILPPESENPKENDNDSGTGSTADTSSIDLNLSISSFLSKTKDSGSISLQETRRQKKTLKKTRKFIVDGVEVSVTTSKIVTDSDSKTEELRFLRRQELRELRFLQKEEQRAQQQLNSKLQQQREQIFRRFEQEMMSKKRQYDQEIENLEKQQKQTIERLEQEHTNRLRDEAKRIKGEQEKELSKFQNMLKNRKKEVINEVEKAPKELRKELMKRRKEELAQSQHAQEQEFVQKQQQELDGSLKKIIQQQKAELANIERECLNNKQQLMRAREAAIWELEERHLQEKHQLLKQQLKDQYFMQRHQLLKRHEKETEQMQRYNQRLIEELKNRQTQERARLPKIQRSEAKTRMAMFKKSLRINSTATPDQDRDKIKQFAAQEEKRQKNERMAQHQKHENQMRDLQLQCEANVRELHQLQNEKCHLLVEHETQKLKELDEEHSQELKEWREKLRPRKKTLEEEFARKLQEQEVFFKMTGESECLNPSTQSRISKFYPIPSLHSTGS
# LIM domain kinase 1, sequence (P53667 whole entry, the tested form may be a part): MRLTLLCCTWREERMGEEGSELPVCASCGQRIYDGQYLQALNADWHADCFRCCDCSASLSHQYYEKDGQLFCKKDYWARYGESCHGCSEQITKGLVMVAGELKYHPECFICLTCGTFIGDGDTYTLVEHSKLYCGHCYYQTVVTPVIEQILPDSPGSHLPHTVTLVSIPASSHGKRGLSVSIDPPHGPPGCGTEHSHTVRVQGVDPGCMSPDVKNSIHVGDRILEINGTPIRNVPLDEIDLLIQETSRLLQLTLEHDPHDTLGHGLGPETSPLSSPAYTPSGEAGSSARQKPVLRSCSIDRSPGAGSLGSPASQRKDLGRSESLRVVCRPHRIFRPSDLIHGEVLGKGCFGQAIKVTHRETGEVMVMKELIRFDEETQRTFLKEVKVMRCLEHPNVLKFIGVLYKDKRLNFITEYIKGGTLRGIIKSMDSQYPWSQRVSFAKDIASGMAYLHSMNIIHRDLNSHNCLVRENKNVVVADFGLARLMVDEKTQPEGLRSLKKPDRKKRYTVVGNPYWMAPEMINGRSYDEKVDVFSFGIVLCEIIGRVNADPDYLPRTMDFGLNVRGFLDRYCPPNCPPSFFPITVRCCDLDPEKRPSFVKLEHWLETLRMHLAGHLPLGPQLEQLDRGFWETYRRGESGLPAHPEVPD
smiles,measurement,setting,value
CC(=O)N(/N=C1\Sc2ccccc2C1=O)c1ccccc1C,IC50,[1],1910 nM (active)
Cc1ccc(-n2sc3ccccc3c2=O)cc1,IC50,[2],6780 nM (active)
same,IC50,Aspartyl aminopeptidase,1250 nM (active)
Cc1cccc(NC(=O)Nc2ccc3c(c2)CCc2sc4ncnc(N)c4c2-3)c1,Ki,[3],79.4 nM (active)
same,Ki,[4],> 1580 nM (inactive)
same,Ki,[5],> 3160 nM (inactive)
same,Ki,[6],63.1 nM (active)
same,Ki,LIM domain kinase 1,631 nM (active)
same,Ki,[7],> 631 nM (inactive)
same,Ki,[8],126 nM (active)
same,Ki,[9],> 3980 nM (inactive)
same,Ki,[10],79.4 nM (active)
same,Ki,[11],> 3980 nM (inactive)
same,Ki,[12],> 1580 nM (inactive)
CCC(=O)NC(c1ccc(C)cc1)c1ccc2cccnc2c1O (stereo unspecified),IC50,[13],1620 nM (active)
N/C(=N\N=C/c1ccc(-c2ccc(O)c(C(=O)O)c2)o1)N[N+](=O)[O-],IC50,[14],3940 nM (active)
